Measured values reported in patent US10308649B2, “Compounds and methods to suppress autoimmune response” (Oregon State University, priority 2014, dated 2019).

Key:
[1] = test system: NOD.Foxp3DTR mice; test: Flow cytometry of PLN cells of NOD.Foxp3DTR mice; type: in vivo, mouse
Experimental: FIG. 6a illustrates details of the mouse model used to analyze the therapeutic effects and mechanisms by which AhR activation alters T cell differentiation. […] Arrows 152 illustrate the NOD.Foxp3^DTR mice were orally dosed with 60 mg/kg AHRL1 on days −1, 1, 3, 5, and 7 relative to DT treatment on day 0. The carrier for AHRL1 was a 30% DMSO, 20% CREMAPHOR, 50% PECEOL solution. Data was also collected from NOD.Foxp3^DTR mice treated with TCDD on day −1 relative to DT treatment on day 0. […] Non-obese diabetic Foxp3 wild type (NOD.Foxp3^WT) mice treated with DT and NOD.Foxp3^DTR mice treated with vehicle were used as controls. The vehicle was the carrier for AHRL1. Arrow 158 illustrates sacrifice of the mice on day 9.
The leukocyte composition of the pancreas and draining lymph nodes was analyzed using flow cytometry. Draining lymph nodes and pancreata were excised from the sacrificed mice, and single cell suspensions were prepared for analysis with flow cytometry. […] Data were acquired using an FC-500 flow cytometer (BECKMAN COULTER) and compensated and analyzed using FLOWJO software. […]

[2] = test system: B6D2F1 host mice; test: 15-day GVHD model in B6D2F1 host mice; type: in vivo, mouse
Experimental: GVHD was established using donor cells obtained from wild type or AhR-deficient mice. B6D2F1 host mice were injected with wild type (WT) or AhR^−/− splenocytes to initiate the graft versus host (GVH) response. Due to a limited number of AhR-deficient mice available, whole splenocytes rather than purified T cells were used to initiate the GVH response. Host mice were given AHRL1 or vehicle treatments daily for 15 days. The vehicle consisted of a mixture of 6.7% anisole and peanut oil. A single loading dose of 10 mg/kg AHRL1 was given at the time of donor cell injection and a maintenance dose of 2 mg/kg AHRL1 was given every day thereafter until termination of the experiment on day 15.
The progression of GVHD in the host mice was monitored and a clinical GVHD pathology score was calculated. At termination of the 15-day study, each animal was evaluated and given a clinical GVHD pathology score based on five criteria: changes in weight, posture, activity, fur texture, and mortality. The clinical GVHD pathology score was assessed on a scale of 0 to 3, where 0 was normal, 1 was moderate morbidity, 2 was severe morbidity, and 3 was death.
In a separate study, the effect of AHRL1 on donor cell engraftment was examined and directly compared with the effect of TCDD. B6D2F1 host mice in groups of 6 were injected with splenocytes from C57Bl/6 mice to initiate the GVH response, and treated with AHRL1 or vehicle daily for 15 days. The vehicle consisted of a mixture of 6.7% anisole and peanut oil. A single loading dose of 10 mg/kg AHRL1 was given at the time of donor cell injection and a maintenance dose of 2 mg/kg AHRL1 was given every day thereafter until termination of the experiment on day 15. 15 μg/kg of TCDD was given to an additional group of 6 mice on day 0 as a positive control. […] The donor cells were identified in the host spleen as the H-2D^d negative population.

[3] = Clinical chemistry profile from toxicology screen of NOD mice; type: in vivo, mouse; conditions: 20 weeks of age
Description: The results listed in Table 1 illustrate an absence of clinical signs of toxicity after prolonged treatment with AHRL1. Table 1 lists the results of a clinical chemistry profile from a toxicology screen of the AHRL1 treated, TCDD treated, and vehicle treated mice. The clinical chemistry panel includes tests for substances in the blood that have biological functions, metabolites or waste products, and substances that indicate cell damage or disease. The concentrations of the substances listed in Table 1 were measured at 20 weeks of age. The concentrations are reported as milligrams per deciliter (mg/dl), grams per deciliter (g/dl), units per liter (U/L), or milli equivalents per liter (mEq/L).
FIGS. 18a-18r show the clinical chemistry profile from a toxicology screen for three groups: AHRL1 treated mice, vehicle treated mice, and untreated mice. For the test group, the mice were treated with AHRL1. The vehicle given was the carrier for the AHRL1 compound. The carrier included 30% DMSO, 20% Cremaphor, and 50% Peceol. The mice were tested after 12 weeks of exposure. The clinical chemistry panel includes tests for substances in the blood that have biological functions, metabolites or waste products, and substances that indicate cell damage or disease.

[4] = in humans; cited from earlier work
[5] = molecular target: T1, AhR (Mus musculus, UniProt P30561); test: Competitive inhibition of [3H] 3-MC binding to AhR
T1 sequence (P30561 10-848): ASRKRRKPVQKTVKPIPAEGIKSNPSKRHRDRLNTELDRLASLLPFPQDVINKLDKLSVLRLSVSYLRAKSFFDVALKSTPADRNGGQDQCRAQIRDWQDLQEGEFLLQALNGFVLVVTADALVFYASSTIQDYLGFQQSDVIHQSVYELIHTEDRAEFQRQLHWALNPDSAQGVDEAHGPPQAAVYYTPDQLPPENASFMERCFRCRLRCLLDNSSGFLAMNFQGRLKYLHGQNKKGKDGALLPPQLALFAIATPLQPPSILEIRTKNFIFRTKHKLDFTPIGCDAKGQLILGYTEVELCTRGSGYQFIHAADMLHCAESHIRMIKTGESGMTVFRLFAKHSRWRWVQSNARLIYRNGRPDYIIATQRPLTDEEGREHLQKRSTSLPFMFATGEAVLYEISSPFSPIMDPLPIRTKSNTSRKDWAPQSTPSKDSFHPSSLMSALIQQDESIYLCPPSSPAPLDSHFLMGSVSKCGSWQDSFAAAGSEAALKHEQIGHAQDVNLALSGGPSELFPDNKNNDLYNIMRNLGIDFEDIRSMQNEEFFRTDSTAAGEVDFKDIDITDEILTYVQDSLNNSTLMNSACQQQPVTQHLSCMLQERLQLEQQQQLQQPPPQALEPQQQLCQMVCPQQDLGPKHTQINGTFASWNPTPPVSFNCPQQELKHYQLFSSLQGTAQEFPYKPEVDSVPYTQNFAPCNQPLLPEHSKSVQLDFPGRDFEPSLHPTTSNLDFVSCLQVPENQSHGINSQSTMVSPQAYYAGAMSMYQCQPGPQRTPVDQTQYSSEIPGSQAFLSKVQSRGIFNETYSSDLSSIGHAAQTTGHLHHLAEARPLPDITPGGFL
Description: 3-MC binding to AhR. […] 3-methylcholanthrene (3-MC) to AhR.

## Clc1cc2c(cc1Cl)Oc1cc(Cl)c(Cl)cc1O2 [TCDD, 2,3,7,8-tetrachlorodibenzo-p-dioxin]
[1]; DT treated NOD.Foxp3DTR mice
  percentage of CD4+Foxp3- cells that were Nrp1+: decreased
[1]; TCDD treated mice
  percentage of CD4+Foxp3- cells that were RORγt+: 0.42%
[2]; day 15, AHRL1 10 mg/kg then 2 mg/kg daily, TCDD 15 μg/kg day 0
  total number of donor CD4+ and CD8+ T cells engrafted in the host spleen: reduced total number
[2]; host spleen, day 15
  percentage and number of activated donor CD8+ T cells expressing a CTL phenotype (CD8+CD44hiCD45RBlow): reduce the percentage and number
[2]; host spleen, day 15, vs vehicle
  percentage and number of host B cells (CD19+ cells): increased percentage and number
[3]
  Alanine Aminotransferase (ALT): 24.0 ± 2.5 U/L
  Albumin: 3.4 ± 0.1 g/dL
  Alkaline Phosphatase: 80.0 ± 14.7 U/L
  Anion Gap: 34.0 ± 1.2 mEq/L
  Bicarbonate (tCO2): 18.6 ± 1.4 mEq/L
  Bilirubin, Total: 0.43 ± 0.64 mg/dL
  Blood Urine Nitrogen (BUN): 20.0 ± 2.7 mg/dL
  Calcium: 10.8 ± 0.4 mg/dL
  Chloride: 109.5 ± 1.7 mEq/L
  Cholesterol: 91.9 ± 5.1 mg/dL
  Creatinine: 0.3 ± 0.1 mg/dL
  Creatinine Kinase (CK): 398.3 ± 248.7 U/L
  Gamma-glutamyl transferase (GGT): 0.0 ± 0.0 U/L
  Phosphorous: 8.2 ± 1.2 mg/dL
  Potassium: 9.7 ± 0.4 mEq/L
  Sodium: 151.9 ± 2.4 mEq/L
  Total Protein: 5.6 ± 0.2 g/dL
[4]
  half-life: approximately seven
[5]
  IC50: 4.7 nM
